A value given as a limit tells only on which side of the number the result lay.

The term IC50 denotes the midpoint of a concentration-inhibition curve.

For one assay, the target named is SARS-CoV-2 Papain-Like Protease (PLpro) (Severe acute respiratory syndrome coronavirus 2 (2019-nCoV) (SARS-CoV-2), UniProt P0DTD1). Put plainly: biochemical. The note with it: PLpro enzymatic fluorescence assay; class symbols; read-out: PLpro IC50.
As for `Cc1ccc(OC[C@@H]2CCN2)cc1C(=O)NC1(c2cc(-c3ccc(F)cc3)cc3ncccc23)CC1` [Compound 675, (S)-5-(Azetidin-2-ylmethoxy)-N-(1-(7-(4-fluorophenyl)quinolin-5-yl)cyclopropyl)-2-methylbenzamide], the IC50 is less than 100 nM. On the same count and under the same terms, next, `Cc1ccc(OC[C@@H]2CCN2C)cc1C(=O)NC1(c2cc(C(C)O)cc3ncccc23)CC1` (stereo partly drawn) [Compound 676, N-(1-(7-(1-Hydroxyethyl)quinolin-5-yl)cyclopropyl)-2-methyl-5-(((S)-1-methylazetidin-2-yl)methoxy)benzamide]: less than 100 nM; `CCc1cc(C2(NC(=O)c3cc(OC[C@@H]4CCN4)ccc3C)CC2)c2cccnc2c1` [Compound 677, (S)-5-(Azetidin-2-ylmethoxy)-N-(1-(7-ethylquinolin-5-yl)cyclopropyl)-2-methylbenzamide]: less than 100 nM. Same read-out and setting: next, `Cc1ccc(OC[C@@H]2CCN2C)cc1C(=O)NC1(c2cc(-c3ccc(F)cc3)cc3ncccc23)CC1` [Compound 678, (S)—N-(1-(7-(4-Fluorophenyl)quinolin-5-yl)cyclopropyl)-2-methyl-5-((1-methylazetidin-2-yl)methoxy)benzamide]: less than 100 nM; `Cc1nnc(-c2cc(C3(NC(=O)c4cc(OC[C@@H]5CCN5)ccc4C)CC3)c3cccnc3c2)o1` [Compound 680, (S)-5-(Azetidin-2-ylmethoxy)-2-methyl-N-(1-(7-(5-methyl-1,3,4-oxadiazol-2-yl)quinolin-5-yl)cyclopropyl)benzamide]: less than 100 nM; `Cc1ccc(OC[C@@H]2CCN2C)cc1C(=O)NC1(c2cc(-c3ncccn3)cc3ncccc23)CC1` [Compound 681, (S)-2-Methyl-5-((1-methylazetidin-2-yl)methoxy)-N-(1-(7-(pyrimidin-2-yl)quinolin-5-yl)cyclopropyl)benzamide]: less than 100 nM.

On to `Cc1ccc(OC[C@@H]2CCN2)cc1C(=O)NC1(c2cc(-c3ncccn3)cc3ncccc23)CC1` [Compound 682, (S)-5-(Azetidin-2-ylmethoxy)-2-methyl-N-(1-(7-(pyrimidin-2-yl)quinolin-5-yl)cyclopropyl)benzamide], for which the IC50 was less than 100 nM. Still for that read-out and setting: the result for `Cc1ccc(OC[C@@H]2CCN2C)cc1C(=O)NC1(c2cc(N3CCCC3)cc3ncccc23)CC1` [Compound 683, (S)-2-Methyl-5-((1-methylazetidin-2-yl)methoxy)-N-(1-(7-(pyrrolidin-1-yl)quinolin-5-yl)cyclopropyl)benzamide] reads less than 100 nM. The same measure, in the same setting: the result for `Cc1ccc(OC[C@@H]2CCN2C)cc1C(=O)NC1(c2cc(/C=C/C3CC3)cc3ncccc23)CC1` [Compound 684, (S,E)-N-(1-(7-(2-Cyclopropylvinyl)quinolin-5-yl)cyclopropyl)-2-methyl-5-((1-methylazetidin-2-yl)methoxy)benzamide] reads less than 100 nM. Still for that read-out and setting: the result for `Cc1ccc(OC[C@@H]2CCN2)cc1C(=O)NC1(c2cc(-c3ccc4ncnn4c3)cc3ncccc23)CC1` [Compound 685, (S)-N-(1-(7-([1,2,4]Triazolo[1,5-a]pyridin-6-yl)quinolin-5-yl)cyclopropyl)-5-(azetidin-2-ylmethoxy)-2-methylbenzamide] reads less than 100 nM; that for `Cc1ccc(OC[C@@H]2CCN2)cc1C(=O)NC1(c2cc(-c3ccc4nccn4c3)cc3ncccc23)CC1` [Compound 686, (S)-5-(Azetidin-2-ylmethoxy)-N-(1-(7-(imidazo[1,2-a]pyridin-6-yl)quinolin-5-yl)cyclopropyl)-2-methylbenzamide], less than 100 nM; that for `Cc1ccc(OC[C@@H]2CCN2C)cc1C(=O)NC1(c2cc(-c3ccc(F)c(Cl)c3)cc3ncccc23)CC1` [Compound 687, (S)—N-(1-(7-(3-Chloro-4-fluorophenyl)quinolin-5-yl)cyclopropyl)-2-methyl-5-((1-methylazetidin-2-yl)methoxy)benzamide], less than 100 nM. For `Cc1ccc(OC[C@@H]2CCN2)cc1C(=O)NC1(c2cc(-c3cnc(N4CCCCC4)nc3)cc3ncccc23)CC1` [Compound 688, (S)-5-(Azetidin-2-ylmethoxy)-2-methyl-N-(1-(7-(2-(piperidin-1-yl)pyrimidin-5-yl)quinolin-5-yl)cyclopropyl)benzamide], the IC50 was less than 100 nM.

Take `Cc1ccc(OC[C@@H]2CCN2)cc1C(=O)NC1(c2cc(-c3cncc(N4CCOCC4)c3)cc3ncccc23)CC1` [Compound 689, (S)-5-(Azetidin-2-ylmethoxy)-2-methyl-N-(1-(7-(5-morpholinopyridin-3-yl)quinolin-5-yl)cyclopropyl)benzamide]: the IC50 was less than 100 nM. Still for that read-out and setting: the result for `Cc1cccc(/C=C/c2cc(C3(NC(=O)c4cc(OC[C@@H]5CCN5C)ccc4C)CC3)c3cccnc3c2)c1` [Compound 690, (S,E)-2-Methyl-5-((1-methylazetidin-2-yl)methoxy)-N-(1-(7-(3-methylstyryl)quinolin-5-yl)cyclopropyl)benzamide] reads less than 100 nM; that for `Cc1nnc(-c2cc(C3(NC(=O)c4cc(OC[C@@H]5CCN5C)ccc4C)CC3)c3cccnc3c2)s1` [Compound 691, (S)-2-Methyl-N-(1-(7-(5-methyl-1,3,4-thiadiazol-2-yl)quinolin-5-yl)cyclopropyl)-5-((1-methylazetidin-2-yl)methoxy)benzamide], less than 100 nM. Same read-out and setting: the result for `Cc1nnc(-c2cc(C3(NC(=O)c4cc(OC[C@@H]5CCN5C)ccc4C)CC3)c3cccnc3c2)o1` [Compound 693, (S)-2-Methyl-N-(1-(7-(5-methyl-1,3,4-oxadiazol-2-yl)quinolin-5-yl)cyclopropyl)-5-((1-methylazetidin-2-yl)methoxy)benzamide] reads less than 100 nM; that for `Cc1ccc(OC[C@@H]2CCN2)cc1C(=O)NC1(c2cc(-c3ncco3)cc3ncccc23)CC1` [Compound 694, (S)-5-(Azetidin-2-ylmethoxy)-2-methyl-N-(1-(7-(oxazol-2-yl)quinolin-5-yl)cyclopropyl)benzamide], less than 100 nM. Still for that read-out and setting: the result for `Cc1ccc(OC[C@@H]2CCN2)cc1C(=O)NC1(c2cc(-c3cc4ccccc4s3)cc3ncccc23)CC1` [Compound 695, (S)-5-(Azetidin-2-ylmethoxy)-N-(1-(7-(benzo[b]thiophen-2-yl)quinolin-5-yl)cyclopropyl)-2-methylbenzamide] reads less than 100 nM; that for `CC#Cc1cc(C2(NC(=O)c3cc(OC[C@@H]4CCN4)ccc3C)CC2)c2cccnc2c1` [Compound 696, (S)-5-(Azetidin-2-ylmethoxy)-2-methyl-N-(1-(7-(prop-1-yn-1-yl)quinolin-5-yl)cyclopropyl)benzamide], less than 100 nM.

On to `C#Cc1cc(C2(NC(=O)c3cc(OC[C@@H]4CCN4)ccc3C)CC2)c2cccnc2c1` [Compound 697, (S)-5-(Azetidin-2-ylmethoxy)-N-(1-(7-ethynylquinolin-5-yl)cyclopropyl)-2-methylbenzamide], for which the half-maximal inhibitory concentration (IC50) is less than 100 nM. On the same count and under the same terms, next, `Cc1ncc(-c2cc(C3(NC(=O)c4cc(OC[C@@H]5CCN5)ccc4C)CC3)c3cccnc3c2)o1` [Compound 698, (S)-5-(Azetidin-2-ylmethoxy)-2-methyl-N-(1-(7-(2-methyloxazol-5-yl)quinolin-5-yl)cyclopropyl)benzamide]: less than 100 nM. For `Cc1ccc(OC[C@@H]2CCN2C)cc1C(=O)NC1(c2cc(-c3cncc(N4CCOCC4)c3)cc3ncccc23)CC1` [Compound 699, (S)-2-Methyl-5-((1-methylazetidin-2-yl)methoxy)-N-(1-(7-(5-morpholinopyridin-3-yl)quinolin-5-yl)cyclopropyl)benzamide], the IC50 is less than 100 nM. `Cc1ccc(OC[C@@H]2CCN2C)cc1C(=O)NC1(c2cc(-c3ccc4ncnn4c3)cc3ncccc23)CC1` [Compound 700, (S)—N-(1-(7-([1,2,4]Triazolo[1,5-a]pyridin-6-yl)quinolin-5-yl)cyclopropyl)-2-methyl-5-((1-methylazetidin-2-yl)methoxy)benzamide]: the IC50 is less than 100 nM. The same measure, in the same setting: the result for `Cc1ccc(OC[C@@H]2CCN2C)cc1C(=O)NC1(c2cc(-c3cnc(N4CCCCC4)nc3)cc3ncccc23)CC1` [Compound 701, (S)-2-Methyl-5-((1-methylazetidin-2-yl)methoxy)-N-(1-(7-(2-(piperidin-1-yl)pyrimidin-5-yl)quinolin-5-yl)cyclopropyl)benzamide] reads less than 100 nM; that for `Cc1ccc(OC[C@@H]2CCN2C)cc1C(=O)NC1(c2cc(-c3ccc4nccn4c3)cc3ncccc23)CC1` [Compound 702, (S)—N-(1-(7-(Imidazo[1,2-a]pyridin-6-yl)quinolin-5-yl)cyclopropyl)-2-methyl-5-((1-methylazetidin-2-yl)methoxy)benzamide], less than 100 nM; that for `Cc1cccc(/C=C/c2cc(C3(NC(=O)c4cc(OC[C@@H]5CCN5)ccc4C)CC3)c3cccnc3c2)c1` [Compound 704, (S,E)-5-(Azetidin-2-ylmethoxy)-2-methyl-N-(1-(7-(3-methylstyryl)quinolin-5-yl)cyclopropyl)benzamide], less than 100 nM. On the same count and under the same terms, next, `Cc1ccc(OC[C@@H]2CCN2)cc1C(=O)NC1(c2cc(-c3nc4ccccc4o3)cc3ncccc23)CC1` [Compound 711, (S)-5-(Azetidin-2-ylmethoxy)-N-(1-(7-(benzo[d]oxazol-2-yl)quinolin-5-yl)cyclopropyl)-2-methylbenzamide]: less than 100 nM. Same read-out and setting: next, `Cc1ccc(OC[C@@H]2CCN2)cc1C(=O)NC1(c2cc(-c3cnoc3)cc3ncccc23)CC1` [Compound 714, (S)-5-(Azetidin-2-ylmethoxy)-N-(1-(7-(isoxazol-4-yl)quinolin-5-yl)cyclopropyl)-2-methylbenzamide]: less than 100 nM. Turning to `C=C(C)c1cc(C2(NC(=O)c3cc(OC[C@@H]4CCCN4)ccc3C)CC2)c2cccnc2c1` [Compound 715, (S)-2-Methyl-N-(1-(7-(prop-1-en-2-yl)quinolin-5-yl)cyclopropyl)-5-(pyrrolidin-2-ylmethoxy)benzamide], the IC50 was less than 100 nM.

The same assay, now with this note: SARS-CoV-2 PLpro enzymatic fluorescence assay; read-out: PLpro IC50.
For `C=Cc1cc(C2(NC(=O)c3cc(OC[C@@H]4CCCN4)ccc3C)CC2)c2cccnc2c1` [Compound 713, (S)-2-Methyl-5-(pyrrolidin-2-ylmethoxy)-N-(1-(7-vinylquinolin-5-yl)cyclopropyl)benzamide], the IC50 is less than 100 nM.

(Values after US20250025443A1, “COMPOUNDS AND METHODS FOR TREATING CORONA VIRUSES” (CLEAR CREEK BIO, INC., priority 2021, published 2025).)
